# Experimental data reported in patent publication US20180250306A1, “ALDEHYDE CONJUGATES AND USES THEREOF” (ALDEYRA THERAPEUTICS, INC., priority 2015, published 2018).
# Tests used:
# [1] = Aldehyde adduct formation over time (product HPLC peak)
# Method: It is not possible to conclude if this is the result of poor dissociation (from cyclodextrin) or poor interaction with the aldehyde. Best fit lines over this period give excellent fit to data. […] It can be used to relatively rank each of the samples examined, including NS2. The data were first evaluated over a 7 h time window.
# JNK = assay: Western Blot of MAPK signaling pathways in cardiac fibroblasts; assay type: cell-based, neonatal rats; conditions: NS2 treatment at any level; single blot
# Method: (§1) Thirty hearts from neonatal rats were minced and digested (Neonatal Cardiomyocyte Isolation System, LK003303, Worthington). After tissue digestion and cell dissociation, cell suspensions were plated into 35 mm dishes or onto coverslips in wells of 24-well plates. Serum-free DMEM was added to the cell suspensions and the cells allowed to adhere for 2 hrs. After two hours, the cell suspension was removed and the adherent cells were fed with DMEM containing 10% fetal bovine serum (FBS). Cells were maintained in DMEM+10% FBS for 24 hours before treatments. Treatment duration was 24 hours.
# (§2) Cell samples were divided in to 2 groups, stimulated with H2O2 or not stimulated with H2O2. […] The cells that were treated with H2O2 contained a final concentration of 0.001% in the wells. Drug was dissolved in 9.5% Captisol®, to a stock concentration of 5 mg/ml. […] Cells were treated for 24 hours then either fixed for immunostaining or collected as lysates for Western Blot analysis.
# Whole cell lysates were used for Western blotting; nuclear and cytosolic fractions were not prepared. DMEM from cells plated in 35 mm plates was removed, the cells rinsed quickly in PBS, then incubated in 500 ul cold RIPA buffer for 20-30 minutes at 4° C. under gentle rocking. Following RIPA incubation, cells were scraped from the dish using cell scrapers and frozen at −80° C. overnight to increase cell lysing. […]
# SSADH null mice = assay: Eight-hour NS2 treatment (metabolite) study in wild type and SSADH null mice; assay type: in vivo
# From the text: Mice were 22-23 days old on the day of treatment, and groups (n=3) were balanced for age and gender. […] Future studies in this model will encompass a dose-finding paradigm to ensure adequate target exposure; dose earlier in life; and increase group sizes.
# The design of the study was as follows: • Treatment groups were balanced for date of birth, gender, and weight. • SSADH null mice were generated by crossing mice heterozygous for SSADH deficiency. Expected number of null progeny is 1 in 4. Seven SSADH null mice were generated from this breeding, of which three were assigned to group 3 and four were assigned to group 4.
# • On the day of dosing, NS2 and vehicle were brought to room temperature. […] This working solution was prepared at room temperature, using aseptic technique in the animal dosing suite, and was used within one hour of preparation. • Dosing volume was ˜0.4 μL/g body weight for both mutant and wild-type subjects (note: the average body weight for the SSADH null mice is ˜4.9±0.9 g, and that of age-matched wild-type littermate is 10.2±0.9 g). DMSO total dose is weight normalized. • Leftover working solutions were discarded.
# Organs were snap frozen in liquid nitrogen for biochemical analysis and stored at −80° C. • A terminal cardiac blood sample was obtained in a standard microtainer for serum collection. Serum was prepared by centrifugation for 10 minutes at […] (2500×g) and stored at −80° C. until analyses. […]
# Plasma and tissue homogenates were shipped to the laboratory of Professor Gajja Salomons (VU Medical Center, Amsterdam, the Netherlands) on May 11, 2015. SSA, GHB and D2HG levels were assayed in the Salomons laboratory using the following published methods: 1) “Stable isotope dilution analysis of 4-hydroxybutyric acid: an accurate method for quantification in physiological fluids and the prenatal diagnosis of 4-hydroxybutyric aciduria,” Gibson et al., 1990, Biomed Environ Mass Spectrom. […]
# [2] = hamster cheek pouch radiation; cited from earlier work
# α-SMA = assay: Western Blot of α-SMA in cardiac fibroblasts; assay type: cell-based, neonatal rats; conditions: for α-SMA level (Western Blot): H2O2 stimulated cardiac fibroblasts
# Method: as §1, §2
# Whole cell lysates were used for Western blotting; nuclear and cytosolic fractions were not prepared. DMEM from cells plated in 35 mm plates was removed, the cells rinsed quickly in PBS, then incubated in 500 ul cold RIPA buffer for 20-30 minutes at 4° C. under gentle rocking. Following RIPA incubation, cells were scraped from the dish using cell scrapers and frozen at −80° C. overnight to increase cell lysing. Once thawed, cells were sonicated for 1 minute at 80% maximal power (Biologics Model 150 B/T). Samples were centrifuged at 13K for 10 min at 4° C. then supernatant was separated from pellet for analysis by gel electrophoresis. BCA protein analysis was run to determine total protein, samples normalized to 0.2 ug/uL, and then loaded onto Novex 8% Bolt gels. Gels were run for 35 min at 200 V in MOPS buffer or until the lower molecular weight band reached the bottom of the gel. Protein was then transferred to Hybond 0.45 uM Nitrocellulose (GE Healthcare) for 1 hour. Blots were blocked for 1 hr at room temperature in 5% BSA/TBSt. […]
# circulating cytokines = conditions: LPS model, mouse; cited from earlier work
# [3] = rank from most effective (1) to least
# [4] = SSADH null mice, 8 hours after single 10 mg/kg i.p.
compound,measurement,setting,value
"CC(C)(O)c1nc2ccc(Cl)cc2cc1N [NS2, 2-(3-amino-6-chloroquinolin-2-yl)propan-2-ol]",Gradient of product HPLC peak increase (rate of adduct formation),[1]; 7 h time window,"(Gradient 2.22,"
same,Gradient of product HPLC peak increase (rate of adduct formation),[1]; 23 h time window,"(Gradient 1.33,"
same,"Formation of Product, ranking, 7 Hours",[1]; [3],2
same,"Formation of Product, ranking, 23 Hours",[1]; [3],2
same,JNK-pJNK (Western Blot),JNK,no changes
same,GHB and D-2-HG in liver,SSADH null mice; [4],tendency for decrease
same,"change in levels of metabolites (GHB, SSA, D-2-HG)",SSADH null mice; [4],no statistically significant changes
same,tolerability,"SSADH null mice; mouse, in vivo, ip, 10 mg/kg",well-tolerated
same,overall fibrosis at the site of injury over time,[2],decrease
same,rate of recovery from injury,[2],significant increase
same,α-SMA level (Western Blot),α-SMA; 10 μM,no significant change
same,α-SMA level (Western Blot),"α-SMA; increased dose (100 μM, 1 mM), p<0.01","further α-SMA decreases, which were significant"
same,α-SMA level (Western Blot) compared to control,"α-SMA; non-stimulated cardiac fibroblasts, 10 μM, 100 μM, 1 mM",significant decreases
same,activation of IL-1β,circulating cytokines,significantly decreased
same,activation of IL-17,circulating cytokines,significantly decreased
same,activation of TGF-β,circulating cytokines,significantly decreased
same,levels of the anti-inflammatory cytokine Interleukin 10 (IL-10),circulating cytokines,significantly increasing
